Results from patent US11230558B2, “Activators of autophagic flux and phospholipase D and clearance of protein aggregates including tau and treatment of proteinopathies” (THE TRUSTEES OF COLUMBIA UNIVERSITY IN THE CITY OF NEW YORK, priority 2015, dated 2022).
Each block holds one compound with its values, some of them ahead of it.

Columns and labels:
[1] = Photodiode array (PDA) detection in mouse brain; assay type: in vivo; conditions: FIG. 1
From the text: FIG. 1 is a graph showing a photodiode array (PDA) spectrum of WHYKD8 in mouse brain.
A photodiode array (PDA) was used to detect WHYKD8 in mouse brain (FIG. 1).

Autophagy Markers = assay: Autophagy markers (Cyto-ID assay) in HEK 293 cells expressing mKate2 Tau; assay type: cell-based, Human; conditions: HEK 293 mKate2 Tau cells
Experimental: The dye used in the kit prevents its accumulation within lysosomes, but enables labelling of vacuoles associated with the autophagy pathway using the LC3 biomarker.
The test compounds (along with CytoID™ dye and Hoechst stain) were added to the cells and incubated for 3 hours. Reference compounds were also used in each plate, Rapamycin was used for autophagy induction and chloroquine was used for lysosomal inhibition. After 3 hours test compound was aspirated off and kept. Cells were then washed and read using a fluorescence plate reader. Hoescht, Cyto-ID™ and mKate2 were measured using 3 distinct wavelengths on the plate reader. The Hoescht measurement allowed normalisation of results across wells. After reading, test compound was re-added and the cells are left for a further 21 hours. At the 24 hour time point cells were once again washed and plates read using the fluorescence plate reader.
2) Test samples were prepared in warm FluoroBrite™ DMEM and with 10% FBS and 1% NEAA (FB-DMEM). […]
5) Treatment plate was then washed quickly 3 times with warm FB-DMEM (100 μL/well). […] At this point, the plate was ready for reading. See details in Reading Plate section. Hoescht was read at Excitation wavelength (Ex)=355 nm & Emission wavelength (Em)=446 nm. mKate2 was read at Ex=575 nm & Em=630 nm. Cyto-ID™ was read at Ex=463 nm & Em=534 nm. […]

PLD2 = molecular target: T1, PLD2 (Homo sapiens, UniProt O14939); assay: PLD2 activity: Proteostat/mKate2 with PLD1 inhibitor VU0150669; assay type: cell-based
T1 construct: endogenous in cells; host or cells: HEK 293 Jump-In cells expressing mKate2-Tau
T1 sequence (O14939 whole entry): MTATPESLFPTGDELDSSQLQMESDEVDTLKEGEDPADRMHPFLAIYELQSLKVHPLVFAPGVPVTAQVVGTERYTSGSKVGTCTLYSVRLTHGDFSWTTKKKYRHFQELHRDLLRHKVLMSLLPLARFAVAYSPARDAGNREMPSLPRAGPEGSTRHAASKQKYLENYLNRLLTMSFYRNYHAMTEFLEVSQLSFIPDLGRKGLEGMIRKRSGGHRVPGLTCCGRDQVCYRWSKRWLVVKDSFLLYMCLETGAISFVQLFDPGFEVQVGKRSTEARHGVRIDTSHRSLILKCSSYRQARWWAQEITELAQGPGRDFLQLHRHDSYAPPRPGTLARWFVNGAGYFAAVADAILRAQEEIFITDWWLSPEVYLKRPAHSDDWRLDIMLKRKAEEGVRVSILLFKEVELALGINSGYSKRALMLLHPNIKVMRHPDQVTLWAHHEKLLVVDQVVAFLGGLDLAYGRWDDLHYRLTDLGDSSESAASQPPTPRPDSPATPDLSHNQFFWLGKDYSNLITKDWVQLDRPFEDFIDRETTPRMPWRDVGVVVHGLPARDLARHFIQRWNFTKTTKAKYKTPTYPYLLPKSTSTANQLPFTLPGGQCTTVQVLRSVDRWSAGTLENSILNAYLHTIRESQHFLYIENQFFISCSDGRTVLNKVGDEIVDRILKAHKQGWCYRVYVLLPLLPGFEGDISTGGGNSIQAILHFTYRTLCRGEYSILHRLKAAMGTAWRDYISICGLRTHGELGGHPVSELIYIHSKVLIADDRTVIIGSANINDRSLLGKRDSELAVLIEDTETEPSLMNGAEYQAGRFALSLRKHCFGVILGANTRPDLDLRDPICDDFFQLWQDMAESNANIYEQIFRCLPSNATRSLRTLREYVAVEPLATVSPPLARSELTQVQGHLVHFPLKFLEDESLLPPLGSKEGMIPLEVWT
Experimental: The assay was run in e18 primary cortical neurons from PLD1 or PLD2 KO mice cultured for 14 days. Alternatively, the assay can be run in the cells described above in the presence of excess PLD1 or PLD2 inhibitor to preclude that particular action from contributing to the effect of the drug.
4) On the day of experiment, cells were washed in warmed HBSS twice before media containing test compound (n=3 per compound per dose), inhibitor (355 nM ML298 or 50 nM VU0150669), or vehicle are added to the wells (1.5 mL in 6 well, 600 μL in 12 well). Plates were incubated for 24 hours at 37° C. with 5% CO2.

[2] = tested on: HEK 293 (Human Embryo Kidney) cell line
Experimental: The cells were grown in the presence of the antibiotic doxycycline. When the antibiotic is removed the cells produce Tau (which can be quantified), thus allowing the test compounds' effects on Tau's production to be compared. Doxycycline was removed for 72 hours prior to exposure to the test compounds to promote sufficient Tau production. Cells were subsequently plated into plates for each of the assays described below.

detection in mouse brain by photodiode array [1]: readily detected
Structure (SMILES): Oc1ccc(CCNc2ncnc3ccc(Cl)cc23)cc1 [WHYKD8]

Structure (SMILES): Fc1ccc2ncnc(SC3CCOCC3)c2c1 [WHYKD19]
% Increase Autophagy Markers (Autophagy Markers): 350%

Structure (SMILES): c1cnc2c(SC3CCCC3)ncnc2c1 [WHYKD36]
Proteostat PLD2/PLD1 ratio (PLD2; ratio of Proteostat values): 1.5
mKate2 PLD2/PLD1 ratio (PLD2; ratio of mKate2 values): 1.7
CC50 [2]: 67 µM
